# According to ChEMBL document CHEMBL6083286, “Discovery of ERD-12310A as an Exceptionally Potent and Orally Efficacious PROTAC Degrader of Estrogen Receptor α (ERα)” (J Med Chem, 2024):
# Calls of active or inactive are those of the source. No cut-off for these calls is given here.
# Tests used:
# [1] = Stability in human plasma assessed as half life; assay type: ADME, cell-free
# [2] = Metabolic stability human liver microsome assessed as half life; assay type: ADME; details: microsomes
# [3] = Cmax in rat at 3 mg/kg, po or 1 mg/kg, iv measured upto 24 hrs by LC-MS/MS analysis; assay type: ADME, organism-based; details: in vivo
# [4] = AUC (0 to infinity) in rat at 3 mg/kg, po or 1 mg/kg, iv measured upto 24 hrs by LC-MS/MS analysis; assay type: ADME, organism-based; details: in vivo
# [5] = Volume of distribution at steady state in mouse at 3 mg/kg, po or 1 mg/kg, iv measured upto 24 hrs by LC-MS/MS analysis; assay type: ADME, organism-based; details: in vivo
# [6] = Oral bioavailability in rat at 3 mg/kg measured upto 24 hrs by LC-MS/MS analysis; assay type: ADME, organism-based; details: in vivo
# Cytochrome P450 1A2 = target: T1, Cytochrome P450 1A2 (Homo sapiens, UniProt P05177); assay: Inhibition of CYP1A2 in human liver microsomes incubated for 5 mins in presence of NADPH by LC-MS/MS analysis; assay type: ADME, Microsome
# T1 sequence (P05177 whole entry): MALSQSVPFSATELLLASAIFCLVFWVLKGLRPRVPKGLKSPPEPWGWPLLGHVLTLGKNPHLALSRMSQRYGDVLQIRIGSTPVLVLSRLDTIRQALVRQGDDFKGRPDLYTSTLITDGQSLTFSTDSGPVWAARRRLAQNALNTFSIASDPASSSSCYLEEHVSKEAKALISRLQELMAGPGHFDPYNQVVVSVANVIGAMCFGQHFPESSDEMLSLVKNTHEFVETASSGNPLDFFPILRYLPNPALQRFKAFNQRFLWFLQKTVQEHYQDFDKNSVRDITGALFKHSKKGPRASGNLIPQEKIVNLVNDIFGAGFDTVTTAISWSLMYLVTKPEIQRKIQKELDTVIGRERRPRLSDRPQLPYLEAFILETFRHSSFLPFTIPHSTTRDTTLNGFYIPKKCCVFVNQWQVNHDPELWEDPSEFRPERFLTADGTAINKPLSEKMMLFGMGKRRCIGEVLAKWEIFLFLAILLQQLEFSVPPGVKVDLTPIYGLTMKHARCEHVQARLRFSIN
# Cytochrome P450 2C8 = target: T2, Cytochrome P450 2C8 (Homo sapiens, UniProt P10632); assay: Inhibition of CYP2C8 in human liver microsomes incubated for 5 mins in presence of NADPH by LC-MS/MS analysis; assay type: ADME, Microsome
# T2 sequence (P10632 whole entry): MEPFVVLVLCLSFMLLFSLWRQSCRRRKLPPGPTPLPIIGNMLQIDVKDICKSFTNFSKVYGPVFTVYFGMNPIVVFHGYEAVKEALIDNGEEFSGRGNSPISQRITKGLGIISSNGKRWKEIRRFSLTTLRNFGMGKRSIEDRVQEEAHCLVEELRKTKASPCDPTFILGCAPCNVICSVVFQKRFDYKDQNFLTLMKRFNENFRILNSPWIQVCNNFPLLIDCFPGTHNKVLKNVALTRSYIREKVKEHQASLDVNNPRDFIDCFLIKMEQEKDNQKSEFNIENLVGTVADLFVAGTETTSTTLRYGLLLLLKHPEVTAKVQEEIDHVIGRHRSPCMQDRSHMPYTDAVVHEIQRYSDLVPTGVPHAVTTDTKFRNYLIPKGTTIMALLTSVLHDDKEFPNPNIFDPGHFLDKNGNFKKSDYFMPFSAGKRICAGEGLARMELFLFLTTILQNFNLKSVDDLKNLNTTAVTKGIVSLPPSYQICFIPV
# Cytochrome P450 2D6 = Cytochrome P450 2D6 (Homo sapiens, UniProt P10635); assay: Inhibition of CYP2D6 in human liver microsomes incubated for 5 mins in presence of NADPH by LC-MS/MS analysis; assay type: ADME, Microsome
# Chain of Cytochrome P450 2D6 (P10635 whole entry): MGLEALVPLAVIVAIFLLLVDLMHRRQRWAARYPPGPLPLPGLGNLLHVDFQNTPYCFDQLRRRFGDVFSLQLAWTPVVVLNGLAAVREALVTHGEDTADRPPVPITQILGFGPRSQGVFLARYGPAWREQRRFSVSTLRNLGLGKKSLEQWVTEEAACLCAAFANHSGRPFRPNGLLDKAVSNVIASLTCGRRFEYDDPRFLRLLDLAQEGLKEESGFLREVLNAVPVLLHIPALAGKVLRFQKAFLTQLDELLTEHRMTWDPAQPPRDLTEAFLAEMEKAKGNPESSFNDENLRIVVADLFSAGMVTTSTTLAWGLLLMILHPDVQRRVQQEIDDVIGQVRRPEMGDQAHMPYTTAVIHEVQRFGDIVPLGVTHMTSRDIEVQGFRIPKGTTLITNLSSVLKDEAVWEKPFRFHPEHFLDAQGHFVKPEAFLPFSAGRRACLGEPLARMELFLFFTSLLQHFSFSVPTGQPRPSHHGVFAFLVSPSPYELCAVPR
# [7] = Plasma protein binding in human; assay type: ADME, cell-free
# [8] = Plasma protein binding in rat; assay type: ADME, cell-free
# [9] = Plasma protein binding in mouse; assay type: ADME, cell-free
# [10] = target: T3, Protein cereblon/Estrogen receptor (Homo sapiens, UniProt P03372+Q96SW2); assay: PROTAC activity at CRBN/ERalpha in human T47D cells assessed as reduction in ERalpha protein level at 10 nM measured at 4 hrs by Western blot analysis; assay type: cell-based
# T3 sequence (P03372 whole entry, looked up): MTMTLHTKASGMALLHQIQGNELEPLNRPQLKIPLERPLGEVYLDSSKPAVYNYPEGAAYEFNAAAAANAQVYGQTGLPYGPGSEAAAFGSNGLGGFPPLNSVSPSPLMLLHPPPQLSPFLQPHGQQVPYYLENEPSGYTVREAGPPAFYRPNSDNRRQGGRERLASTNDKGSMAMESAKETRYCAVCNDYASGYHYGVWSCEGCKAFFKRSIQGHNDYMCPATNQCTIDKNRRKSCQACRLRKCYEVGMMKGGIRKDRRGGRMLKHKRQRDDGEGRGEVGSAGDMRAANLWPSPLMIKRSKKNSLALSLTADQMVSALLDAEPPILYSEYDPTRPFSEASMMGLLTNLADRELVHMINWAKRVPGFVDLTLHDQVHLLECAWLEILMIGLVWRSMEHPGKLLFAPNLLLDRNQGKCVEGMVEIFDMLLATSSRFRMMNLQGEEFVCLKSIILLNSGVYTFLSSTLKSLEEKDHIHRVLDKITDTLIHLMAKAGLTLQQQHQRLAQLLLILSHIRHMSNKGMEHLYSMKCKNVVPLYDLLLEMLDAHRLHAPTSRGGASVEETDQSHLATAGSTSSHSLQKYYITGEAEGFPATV
# T3 sequence (Q96SW2 whole entry, looked up): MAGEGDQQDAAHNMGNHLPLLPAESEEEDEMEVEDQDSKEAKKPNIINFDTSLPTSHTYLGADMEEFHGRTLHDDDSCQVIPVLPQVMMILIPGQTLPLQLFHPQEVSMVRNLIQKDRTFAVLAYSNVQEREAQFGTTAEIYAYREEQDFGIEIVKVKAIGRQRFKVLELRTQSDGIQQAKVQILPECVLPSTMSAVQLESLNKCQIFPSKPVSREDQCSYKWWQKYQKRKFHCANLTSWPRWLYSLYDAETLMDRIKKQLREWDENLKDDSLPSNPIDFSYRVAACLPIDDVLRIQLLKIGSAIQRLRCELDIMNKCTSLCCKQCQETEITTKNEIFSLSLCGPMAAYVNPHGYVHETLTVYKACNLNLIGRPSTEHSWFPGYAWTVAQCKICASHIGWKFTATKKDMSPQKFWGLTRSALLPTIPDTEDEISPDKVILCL
# [11] = target: T3, Protein cereblon/Estrogen receptor; assay: PROTAC activity at CRBN/wild type ERalpha in human T47D cells assessed as reduction in ERalpha protein level at 10 to 100 nM measured at 7 hrs by Western blot analysis; assay type: cell-based; details: dose 10-100 nM
# T47D = assay: PROTAC activity at CRBN/ ERalpha D538G mutant in human T47D cells assessed as reduction in ERalpha protein level at 10 to 100 nM measured at 7 hrs by Western blot analysis; assay type: cell-based; parameters: scale not given: the % may be the effect or the level left; details: dose 10-100 nM
# [12] = target: T3, Protein cereblon/Estrogen receptor; assay: PROTAC activity at CRBN/ERalpha in human MCF7 cells assessed as reduction in ERalpha protein level at 5 nM measured for 4 hrs by Western blot analysis; assay type: cell-based
# [13] = target: T3, Protein cereblon/Estrogen receptor; assay: PROTAC activity at CRBN/ERalpha in human MCF7 cells assessed as reduction in ERalpha protein level at 5 nM measured for 4 hrs in presence of MLN-4924 by Western blot analysis; assay type: cell-based
# [14] = target: T3, Protein cereblon/Estrogen receptor; assay: PROTAC activity at CRBN/ERalpha in human MCF7 cells assessed as effect on GSPT1 level at 0.5 to 500 nM measured for 5 hrs by Western blot analysis; assay type: cell-based; details: dose 0.5-500 nM
# [15] = target: T3, Protein cereblon/Estrogen receptor; assay: PROTAC activity at CRBN/ERalpha in human MCF7 cells assessed as reduction ER level at 100 nM measured for 5 hrs by Western blot analysis; assay type: cell-based
# MCF7 [16] = assay: Antiproliferative activity against human MCF7 cells assessed as cell growth inhibition incubated for 4 days by crystal violet staining based assay; assay type: functional; details: time 4.0 day
# [17] = Drug concentration in SCID mouse tumor at 10 mg/kg, po administered daily for 3 days and measured after 6 hrs by LC-MS/MS analysis; assay type: ADME, organism-based, Neoplasm; details: time 3 day, read-out: Ct
# [18] = test system: Protein cereblon/Estrogen receptor (Homo sapiens), P03372+Q96SW2 [Y537S]; assay: In vivo PROTAC activity at CRBN/ESR1 Y537S mutant in SCID mouse xenografted with human MCF7 cells assessed as reduction in ESR1 Y537S level in tumor at 10 mg/kg, po measured after 24 hrs by Western blot analysis; assay type: functional, organism-based; parameters: scale not given: the % may be the effect or the level left
# [19] = test system: Protein cereblon/Estrogen receptor (Homo sapiens), P03372+Q96SW2 [Y537S]; assay: In vivo PROTAC activity at CRBN/ESR1 Y537S mutant in SCID mouse xenografted with human MCF7 cells assessed as reduction in ESR1 Y537S level in tumor at 10 to 30 mg/kg, po administered once daily for 3 days measured after 24 hrs by Western blot analysis; assay type: functional, organism-based; parameters: scale not given: the % may be the effect or the level left; details: dose 10-30 mg/kg, time […]
# MCF7 [20] = assay: Antitumor activity against human MCF7 cells xenografted in SCID mouse assessed as tumor growth inhibition at 30 mg/kg, po administered for 5 weeks and measured on day 81; assay type: functional; details: MCF7, 1944 h, time 81 day, read-out: TGI
# MCF7 [21] = assay: Antitumor activity against human MCF7 cells expressing ESR1 Y537S mutant xenografted in SCID mouse assessed as tumor growth inhibition at 30 mg/kg, po administered 5 days a week for 7 weeks; assay type: functional; details: MCF7, 1176 h, read-out: TGI
# [22] = Drug concentration in SCID mouse plasma at 10 mg/kg, po administered once daily for 3 days measured after 24 hrs by LC-MS/MS analysis; assay type: ADME, organism-based
smiles,measurement,setting,value
O=C1CC[C@H](N2Cc3c(ccc4c3OCC43CCN(C[C@@H]4CCC5(CCN(c6ccc([C@@H]7c8ccc(O)cc8CC[C@@H]7c7ccccc7)cc6)CC5)OC4)CC3)C2=O)C(=O)N1,t1/2,[1],> 4 h
same,t1/2,[2],> 1 h
same,Cmax,[3],57.7 ng/mL
same,AUC,[4],583 ng·h/mL
same,Vdss,[5],5.8 L/kg
same,F,[6],10%
same,IC50,Cytochrome P450 1A2,> 10 µM
same,IC50,Cytochrome P450 2C8,> 10 µM
same,IC50,Cytochrome P450 2D6,> 10 µM
same,PPB,[7],98.9%
same,PPB,[8],95.7%
same,PPB,[9],99%
same,Activity,[10],Active
same,Activity,[11],Active
same,Activity,T47D,> 80%
same,Activity,[12],Active
same,Activity,[13],inactive
same,Activity,[14],Minimal_effect
same,Activity,[15],No effect
same,Activity,MCF7 [16],Active
same,concentration at 72 h,[17],975 ng/mL
same,Activity,[18],71%
same,Activity,[19],74%
same,inhibition in vivo at 30 mg/kg,MCF7 [20],110%
same,inhibition in vivo at 30 mg/kg,MCF7 [21],100%
same,concentration at 96 h,[22],18 ng/mL
